In ChEMBL document CHEMBL3421544, “Design, synthesis and biological evaluation of pyridazino[3,4,5-de]quinazolin-3(2H)-one as a new class of PARP-1 inhibitors” (Bioorg Med Chem Lett, 2015):

Columns and labels:
PC-12 [1] = assay: Neuroprotective activity against H2O2 -mediated injury in rat PC12 cells assessed as cell survival at 0.01 uM relative to control; type: functional; conditions: read-out: Survival
PC-12 [2] = assay: Neuroprotective activity against H2O2 -mediated injury in rat PC12 cells assessed as cell survival at 0.1 uM relative to control; type: functional; conditions: read-out: Survival
PC-12 [3] = assay: Neuroprotective activity against H2O2 -mediated injury in rat PC12 cells assessed as cell survival at 1 uM relative to control; type: functional; conditions: read-out: Survival
[4] = target: Poly [ADP-ribose] polymerase 1 (Homo sapiens) (UniProt P09874); assay: Inhibition of PARP1 (unknown origin) at 2.8 uM
Poly [ADP-ribose] polymerase 1 (Homo sapiens), sequence (P09874 whole entry): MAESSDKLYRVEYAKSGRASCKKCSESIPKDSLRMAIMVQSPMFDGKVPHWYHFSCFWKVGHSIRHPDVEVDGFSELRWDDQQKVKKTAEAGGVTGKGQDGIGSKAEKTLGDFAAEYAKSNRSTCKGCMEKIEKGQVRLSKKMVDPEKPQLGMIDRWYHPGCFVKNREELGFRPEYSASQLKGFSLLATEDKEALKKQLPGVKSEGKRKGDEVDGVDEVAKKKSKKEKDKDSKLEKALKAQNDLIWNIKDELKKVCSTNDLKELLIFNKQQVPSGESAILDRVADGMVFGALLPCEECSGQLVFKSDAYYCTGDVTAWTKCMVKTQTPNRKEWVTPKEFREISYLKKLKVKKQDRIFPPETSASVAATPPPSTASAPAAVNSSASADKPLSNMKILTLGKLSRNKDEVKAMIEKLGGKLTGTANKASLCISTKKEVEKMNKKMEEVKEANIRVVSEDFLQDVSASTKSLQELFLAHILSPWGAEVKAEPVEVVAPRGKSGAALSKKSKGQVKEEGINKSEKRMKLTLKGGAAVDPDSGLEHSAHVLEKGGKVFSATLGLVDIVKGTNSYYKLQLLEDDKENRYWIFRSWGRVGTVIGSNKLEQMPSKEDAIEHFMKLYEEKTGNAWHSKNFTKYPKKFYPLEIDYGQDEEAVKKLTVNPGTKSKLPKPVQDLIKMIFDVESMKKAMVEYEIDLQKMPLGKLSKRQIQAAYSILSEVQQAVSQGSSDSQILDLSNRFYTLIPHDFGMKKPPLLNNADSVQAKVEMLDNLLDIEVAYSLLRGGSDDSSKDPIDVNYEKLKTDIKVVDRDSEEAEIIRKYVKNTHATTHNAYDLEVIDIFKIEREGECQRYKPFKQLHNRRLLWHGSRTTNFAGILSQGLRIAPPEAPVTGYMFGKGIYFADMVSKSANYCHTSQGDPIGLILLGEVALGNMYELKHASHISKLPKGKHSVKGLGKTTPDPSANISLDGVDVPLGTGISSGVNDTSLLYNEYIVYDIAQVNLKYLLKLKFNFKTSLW

inhibition [4] [%] | Structure (SMILES) | viability at 0.01 µM (PC-12 [1]) [%] | viability at 0.1 µM (PC-12 [2]) [%] | viability at 1 µM (PC-12 [3]) [%]
– | Cc1ccc(C2=Nc3cccc4c(=O)[nH]nc(c34)N2)cc1 | 70.9 | 97.2 | 98
– | COCCOC(=O)C1=C(C)NC(C)=C(C(=O)OC(C)C)C1c1cccc([N+](=O)[O-])c1 (stereo not drawn) [NIMODIPINE] | – | – | 90.4
59.3 | NC(=O)c1ccccc1 | – | – | –
– | O=c1[nH]nc2c3c(cccc13)N=C(c1ccccc1)N2 | 81.6 | 98.2 | 88.5
